In PubChem BioAssay (NCI):
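48-hour exposure; five concentrations; linearly interpolated endpoints. At the GI50, growth is halved. TGI marks complete inhibition of growth.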

Assays:
Experiment in all cases: NCI tumour cell line growth inhibition, 48 h
HT29 colon = system: HT29 colon
ACHN renal = system: ACHN renal
HOP-62 NSCLC = system: HOP-62 NSCLC
SW-620 colon = system: SW-620 colon
EKVX NSCLC = system: EKVX NSCLC
CCRF-CEM leukemia = system: CCRF-CEM leukemia
HCC-2998 colon = system: HCC-2998 colon
UACC-257 melanoma = system: UACC-257 melanoma
HCT-116 colon = system: HCT-116 colon

Row | SMILES | TGI (HT29 colon) [µM] | TGI (ACHN renal) [µM] | TGI (HOP-62 NSCLC) [µM] | TGI (SW-620 colon) [µM] | TGI (EKVX NSCLC) [µM] | TGI (CCRF-CEM leukemia) [µM] | TGI (HCC-2998 colon) [µM] | TGI (UACC-257 melanoma) [µM] | TGI (HCT-116 colon) [µM] | GI50 (HT29 colon) [nM] | GI50 (HOP-62 NSCLC) [nM] | GI50 (SW-620 colon) [nM] | GI50 (EKVX NSCLC) [nM] | GI50 (CCRF-CEM leukemia) [nM]
1 | CC(C)C(/C=C/c1ccc(Cl)c(Cl)c1)=N\NC(=O)N/N=C(/C=C/c1ccc(Cl)c(Cl)c1)C(C)C | > 100 | > 100 | > 100 | > 100 | > 100 | > 100 | > 100 | > 100 | – | – | – | – | – | –
2 | O=c1c(=O)c2c(Br)sc(Br)c2c1=O | 57.4 | 44.7 | > 100 | 31.8 | 42.8 | – | > 100 | 36.5 | 37.8 | – | – | – | – | –
3 | CCOP(=O)(OCC)C(N)c1ccc(Cl)cc1 (centres undefined) | > 100 | > 100 | – | > 100 | > 100 | > 100 | – | > 100 | > 100 | – | – | – | – | –
4 | CCCCON1C[C@H](OC(C)=O)C(OC(C)=O)[C@H](OC(C)=O)C1 (some centres undefined) | > 100 | > 100 | > 100 | – | > 100 | > 100 | > 100 | > 100 | > 100 | – | – | – | – | –
5 | Cc1csc(/N=C\c2c(O)c3ccccc3oc2=O)n1 | > 100 | > 100 | – | > 100 | 99.3 | > 100 | – | > 100 | > 100 | – | – | – | – | –
6 | O=S(=O)(/N=C(\NO)Nc1ccc(Cl)cc1)c1cccc2nsnc12 | > 100 | > 100 | > 100 | > 100 | 66 | 71.9 | – | > 100 | 85.4 | – | – | – | – | –
7 | S=C(c1c[nH]c2ccccc12)N1CCN(Cc2ccccc2)CC1 | 30.1 | > 100 | 33 | 31.6 | 41.8 | > 100 | – | 50.9 | 29.1 | – | – | – | – | –
8 | CC1=Nc2sc3c(c2C2=NCCN12)CCCC3 | 36.5 | 69.9 | > 100 | 52.9 | 94.1 | – | > 100 | 48.5 | 44.7 | – | – | – | – | –
9 | CCCCCCCCCCCCCCCCOC[C@@H](COC(c1ccccc1)(c1ccccc1)c1ccccc1)O[P+](=S)OC (some centres undefined) | 35.2 | 29 | – | 37 | 31.5 | 30.1 | – | 26.5 | 14.1 | – | – | – | – | –
10 | NNC(=O)c1nnn(CCc2ccccc2)c1C(=O)NN | > 100 | > 100 | > 100 | – | > 100 | > 100 | > 100 | > 100 | > 100 | – | – | – | – | –
11 | Cc1ccc(N(CC(=O)Nc2ccc(S(=O)(=O)N3CCC(N4CCCC4)CC3)cc2)S(=O)(=O)c2ccc(Cl)cc2)cc1 | 3.68 | – | 3.55 | 3.44 | 3.82 | 6.35 | – | – | – | 1870 | 1760 | 1660 | 1690 | 1900
12 | CC1C2(C)OC(=N)C(C#N)(C(c3cccc([N+](=O)[O-])c3)O2)C1(C#N)C#N (centres undefined) | 74.6 | > 100 | – | 31.3 | 98.3 | 52.2 | – | 49.6 | 40.4 | – | – | – | – | –
